Test results as given in US7829665B2 (priority 2005, dated 2010).
Read-outs that look alike come from different tables or passages of the source.

Tests used:
[1] = system: HCV sub-genomic replicon in GS4.3 cells (HuH-7 hepatoma cells); assay: Quantitation by ELISA of Neomycin phosphotransferase II (NPTII) in the HCV sub-genomic replicon, GS4.3; assay type: cell-based, hepatitis C virus; details: Hepatitis C virus, Huh-7; GS4.3 cells, 72 h incubation, NPTII ELISA; read-out: Replicon EC50
Summary of the method: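 Replicon-bearing HuH-7 (GS4.3) cells were exposed to compounds for 72 h in G418-free medium, top final concentration 10 μM, 1% DMSO. Lysates went to an NPTII ELISA read at 450 nm. Signal was normalised to DMSO-treated wells and EC50 was derived by four-parameter curve fitting.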

[2] = molecular target: T1, full-length NS3/NS4A-2 (HCV NS3 protease) (Hepatitis C virus genotype 1a, UniProt P27958); assay: NS3-NS4 protease assay / NS3 inhibition assay (RETS1 substrate, fluorescence kinetic read); assay type: biochemical
T1 construct: Recombinant E. coli or Baculovirus full-length NS3 was diluted to 3.33 μM with assay buffer; made in house; host or cells: E. coli or baculovirus (BV) expression system
Summary of the method: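 Ki values come from IC50 fits corrected via Ki=IC50/(1+[S]/Km), with Km 2.03 μM for E. coli and 1.74 μM for baculovirus full-length NS3. Enzyme (2 or 3 nM NS3, respectively, complexed with NS4A-2) sat with compound, top concentration 50 microM, for 10 min at room temperature. Cleavage of RETS1 (8 μM working solution) was then followed by fluorescence (335/495 nm) over 30 min.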

[3] = recombinant E. coli or Baculovirus full-length NS3 with NS4A-2, read-out: NS3-NS4 IC50

T1 sequence (P27958 1027-1657): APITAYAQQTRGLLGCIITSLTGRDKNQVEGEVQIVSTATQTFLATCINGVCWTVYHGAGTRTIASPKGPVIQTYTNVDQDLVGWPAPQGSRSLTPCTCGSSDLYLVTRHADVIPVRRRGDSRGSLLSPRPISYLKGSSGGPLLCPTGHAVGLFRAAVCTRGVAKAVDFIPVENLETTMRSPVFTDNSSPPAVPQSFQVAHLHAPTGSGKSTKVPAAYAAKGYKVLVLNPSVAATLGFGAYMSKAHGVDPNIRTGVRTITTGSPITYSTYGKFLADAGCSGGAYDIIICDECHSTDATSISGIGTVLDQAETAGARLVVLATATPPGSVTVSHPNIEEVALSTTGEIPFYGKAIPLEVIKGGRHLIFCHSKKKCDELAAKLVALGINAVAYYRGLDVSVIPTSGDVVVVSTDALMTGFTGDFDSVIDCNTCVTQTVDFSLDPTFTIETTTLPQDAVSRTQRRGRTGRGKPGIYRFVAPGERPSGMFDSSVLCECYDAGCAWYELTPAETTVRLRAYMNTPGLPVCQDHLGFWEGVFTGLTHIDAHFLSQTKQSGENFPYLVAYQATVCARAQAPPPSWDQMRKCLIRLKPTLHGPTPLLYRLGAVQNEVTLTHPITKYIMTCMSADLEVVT

Row | SMILES | EC50 [1] [nM] | IC50 [2, 3] [nM] | IC50 [2] [nM]
1 | O=C1N[C@]2(C(=O)NS(=O)(=O)C3CC3)C[C@H]2/C=C\CCCCC[C@H](Nc2c(NCC(F)(F)F)c(=O)c2=O)C(=O)N2C[C@H](OC(=O)N3Cc4cccc(F)c4C3)C[C@@H]12 [Compound 196] | < 10000 | < 100 | 
2 | CC(C)(C)OC(=O)N[C@H]1CCCCC/C=C\[C@@H]2C[C@@]2(C(=O)NCC2CC2)NC(=O)[C@@H]2C[C@@H](OC(=O)N3Cc4cccc(F)c4C3)CN2C1=O [Compound 603] | < 1000 | < 1000 | 
3 | COCC1c2cccc(F)c2CCN1C(=O)O[C@@H]1CC2C(=O)N[C@]3(C(=O)NS(=O)(=O)C4CC4)C[C@H]3/C=C\CCCCC[C@H](N)C(=O)N2C1 (some centres unmarked) [Compound 106] | > 10000 | < 1000 | 
4 | CC(C)(C)OC(=O)N[C@H]1CCCCC/C=C\[C@@H]2C[C@@]2(C(=O)NS(=O)(=O)C2CC2)NC(=O)[C@@H]2C[C@@H](OC(=O)N3Cc4cccc(Cl)c4C3)CN2C1=O [Compound 115] | < 100 | < 100 | 
5 | O=C1N[C@]2(C(=O)NS(=O)(=O)C3CC3)C[C@H]2/C=C\CCCCC[C@H](Nc2nc(-c3ccccc3)cs2)C(=O)N2C[C@H](OC(=O)N3Cc4cccc(F)c4C3)C[C@@H]12 [Compound 927, (2R,6S,13aS,14aR,16aS,Z)-14a-(cyclopropylsulfonylcarbamoyl)-5,16-dioxo-6-(4-phenylthiazol-2-ylamino)-1,2,3,5,6,7,8,9,10,11,13a,14,14a,15,16,16a-hexadecahydrocyclopropa[e]pyrrolo[1,2-a][1,4]diazacyclopentadecin-2-yl 4-fluoroisoindoline-2-carboxylate] | < 100 | < 100 | 
6 | CC(C)(C)OC(=O)N[C@H]1CCCCC/C=C\[C@@H]2C[C@@]2(C(=O)NCC(O)(C(F)(F)F)C(F)(F)F)NC(=O)[C@@H]2C[C@@H](OC(=O)N3Cc4cccc(F)c4C3)CN2C1=O [Compound 613] | < 1000 | < 1000 | 
7 | CC(C)(C)OC(=O)N[C@H]1CCCCC/C=C\[C@@H]2C[C@@]2(C(=O)Nc2nccs2)NC(=O)[C@@H]2C[C@@H](OC(=O)N3Cc4cccc(F)c4C3)CN2C1=O [Compound 614] | < 1000 | < 1000 | 
8 | CC(C)(C)OC(=O)N[C@H]1CCCCC/C=C\[C@@H]2C[C@@]2(C(=O)NS(=O)(=O)N2CCC(F)(F)C2)NC(=O)[C@@H]2C[C@@H](OC(=O)N3Cc4cccc(Cl)c4C3)CN2C1=O [Compound 211] | < 100 | < 100 | 
9 | [2H]C([2H])([2H])N(C([2H])([2H])[2H])S(=O)(=O)NC(=O)[C@@]12C[C@H]1/C=C\CCCCC[C@H](NC(=O)OC(C)(C)C)C(=O)N1C[C@H](OC(=O)N3Cc4ccccc4C3)C[C@H]1C(=O)N2 [Compound 204] | < 100 | < 100 | 
10 | CC[C@@H]1C[C@H]2C(=O)N[C@]3(C(=O)NS(=O)(=O)C4CC4)C[C@H]3/C=C\CCCCC[C@H](NC(=O)OC3CCCC3)C(=O)N2C1 [Compound 314] | < 10000 | < 100 | 
11 | O=C1N[C@]2(C(=O)NS(=O)(=O)C3CC3)C[C@H]2/C=C\CCCCC[C@H](NCc2ccccc2C(F)(F)F)C(=O)N2C[C@H](OC(=O)N3Cc4cccc(F)c4C3)C[C@@H]12 [Compound 917] | < 100 | < 100 | 
12 | N[C@H]1CCCCC/C=C\[C@@H]2C[C@@]2(C(=O)NCC2CC2)NC(=O)[C@@H]2C[C@@H](OC(=O)N3Cc4cccc(F)c4C3)CN2C1=O [Compound 622] | < 10000 | < 10000 | 
13 | CC(C)(C)OC(=O)N[C@H]1CCCCC/C=C\[C@@H]2C[C@@]2(C(=O)NCC#N)NC(=O)[C@@H]2C[C@@H](OC(=O)N3Cc4cccc(F)c4C3)CN2C1=O [Compound 615] | < 10000 | < 1000 | 
14 | O=C1N[C@]2(C(=O)NS(=O)(=O)C3CC3)C[C@H]2/C=C\CCCCC[C@H](Nc2c(N3CCC3)c(=O)c2=O)C(=O)N2C[C@H](OC(=O)N3Cc4cccc(Cl)c4C3)C[C@@H]12 [Compound 241, (2R,6S,13aS,14aR,16aS,Z)-6-(2-(azetidin-1-yl)-3,4-dioxocyclobut-1-enylamino)-14a-(cyclopropylsulfonylcarbamoyl)-5,16-dioxo-1,2,3,5,6,7,8,9,10,11,13a,14,14a,15,16,16a-hexadecahydrocyclopropa[e]pyrrolo[1,2-a][1,4]diazacyclopentadecin-2-yl 4-chloroisoindoline-2-carboxylate] | < 1000 | < 100 | 
15 | CC(C)(C)OC(=O)N[C@H]1CCCCC/C=C\[C@@H]2C[C@@]2(C(=O)NC(=O)N2CCOCC2)NC(=O)[C@@H]2C[C@@H](OC(=O)N3Cc4cccc(F)c4C3)CN2C1=O [Compound 234] | < 100 | < 100 | 
16 | O=C(N[C@H]1CCCCC/C=C\[C@@H]2C[C@@]2(C(=O)NS(=O)(=O)N2CCC(F)(F)C2)NC(=O)C2C[C@@H](OC(=O)N3Cc4ccccc4C3)CN2C1=O)OC1CCCC1 (some centres unmarked) [Compound 227] | < 100 | < 100 | 

Row | SMILES | EC50 [1] [nM] | IC50 [2, 3] [nM] | IC50 [2] [nM]
17 | CC(C)(C)OC(=O)N[C@H]1CCCCC/C=C\[C@@H]2C[C@@]2(C(=O)NS(=O)(=O)C2CC2)NC(=O)[C@@H]2C[C@@H](OC(=O)N3CCc4c(F)ccc(F)c4C3)CN2C1=O [Compound 258] | < 100 | < 100 | 
18 | CN(C)CCOc1ccc2c(c1)CN(C(=O)O[C@@H]1C[C@H]3C(=O)N[C@]4(C(=O)NS(=O)(=O)C5CC5)C[C@H]4/C=C\CCCCC[C@H](NC(=O)OC4CCCC4)C(=O)N3C1)C2 [Compound 134] | < 100 | < 100 | 
19 | CCOC1(S(=O)(=O)NC(=O)[C@@]23C[C@H]2/C=C\CCCCC[C@H](N)C(=O)N2C[C@H](OC(=O)N4Cc5cccc(Cl)c5C4)C[C@H]2C(=O)N3)CC1 [Compound 167] | < 10000 |  | < 100
20 | CC(C)(C)OC(=O)N[C@H]1CCCCC/C=C\[C@@H]2C[C@@]2(C(=O)NS(=O)(=O)N2CCOCC2)NC(=O)[C@@H]2C[C@@H](OC(=O)N3Cc4cccc(Cl)c4C3)CN2C1=O [Compound 207] | < 100 | < 100 | 
21 | CC(C)(C)c1c(N[C@H]2CCCCC/C=C\[C@@H]3C[C@@]3(C(=O)NS(=O)(=O)C3CC3)NC(=O)[C@@H]3C[C@@H](OC(=O)N4Cc5cccc(F)c5C4)CN3C2=O)c(=O)c1=O [Compound 261] | < 1000 | < 100 | 
22 | CCOC1(S(=O)(=O)NC(=O)[C@@]23C[C@H]2/C=C\CCCCC[C@H](NC(=O)OC(C)(C)C)C(=O)N2C[C@H](OC(=O)N4Cc5cccc(Cl)c5C4)C[C@H]2C(=O)N3)CC1 [Compound 165] | < 100 | < 100 | 
23 | CC(C)(CO)C(=O)N[C@H]1CCCCC/C=C\[C@@H]2C[C@@]2(C(=O)NS(=O)(=O)C2CC2)NC(=O)[C@@H]2C[C@@H](OC(=O)N3Cc4cccc(F)c4C3)CN2C1=O [Compound 254] | < 1000 | < 100 | 
24 | CC(C)(C)OC(=O)N[C@H]1CCOCCCC[C@@H]2C[C@@]2(C(=O)NS(=O)(=O)C2CC2)NC(=O)[C@@H]2C[C@@H](OC(=O)N3Cc4cccc(F)c4C3)CN2C1=O [Compound 1028, (2R,6S,13aR,14aR,16aS)-6-(tert-butoxycarbonylamino)-14a-(cyclopropylsulfonylcarbamoyl)-5,16-dioxohexadecahydro-1H-cyclopropa(j)pyrrolo[1,2-f][1,6,9]oxadiazacyclopentadecin-2-yl 4-fluoroisoindoline-2-carboxylate] | < 100 | < 100 | 
25 | CCCNC(=O)[C@@]12C[C@H]1/C=C\CCCCC[C@H](N)C(=O)N1C[C@H](OC(=O)N3Cc4cccc(F)c4C3)C[C@H]1C(=O)N2 [Compound 621] | > 10000 | > 10000 | 
26 | CC(C)(C)OC(=O)N[C@H]1CCCCC/C=C\[C@@H]2C[C@@]2(C(=O)N[C@@H]2CCS(=O)(=O)C2)NC(=O)[C@@H]2C[C@@H](OC(=O)N3Cc4cccc(F)c4C3)CN2C1=O [Compound 633] | < 1000 | < 1000 | 
27 | O=C1N[C@]2(C(=O)NS(=O)(=O)C3CC3)C[C@H]2/C=C\CCCCC[C@H](NC(=O)C2(O)CC2)C(=O)N2C[C@H](OC(=O)N3Cc4cccc(F)c4C3)C[C@@H]12 [Compound 249] | < 1000 | < 100 | 
28 | CNC(=O)[C@H](NC(=O)[C@@]12C[C@H]1/C=C\CCCCC[C@H](NC(=O)OC(C)(C)C)C(=O)N1C[C@H](OC(=O)N3Cc4cccc(F)c4C3)C[C@H]1C(=O)N2)c1ccc(F)cc1 [Compound 632] | < 10000 | < 1000 | 
29 | O=C(N[C@H]1CCCCC/C=C\[C@@H]2C[C@@]2(C(=O)NS(=O)(=O)C2CC2)NC(=O)[C@H]2Cc3cc(Oc4cccc(Cl)c4)ccc3CN2C1=O)OC1CCCC1 [Compound 2005, Cyclopentyl (1aS,9S,17aR,19aR,Z)-15-(3-chlorophenoxy)-19a-(cyclopropylsulfonylcarbamoyl)-10,18-dioxo-1a,4,5,6,7,8,9,10,12,17,17a,18,19,19a-tetradecahydro-1H-11,14-diaza-bicyclo[13.1.0]hexadeca-1(15), 2-dieno[11,12-b]isoquinolin-9-ylcarbamate] | < 1000 | < 100 | 
30 | CC(C)(C)CCN[C@H]1CCCCC/C=C\[C@@H]2C[C@@]2(C(=O)NS(=O)(=O)C2CC2)NC(=O)[C@@H]2C[C@@H](OC(=O)N3Cc4cccc(F)c4C3)CN2C1=O [Compound 912] | < 100 | < 100 | 
31 | N[C@H]1CCCCC/C=C\[C@@H]2C[C@@]2(C(=O)NS(=O)(=O)N2CCCC2)NC(=O)[C@@H]2C[C@@H](OC(=O)N3Cc4cccc(Cl)c4C3)CN2C1=O [Compound 220] | < 1000 |  | < 100
